Laboratory results reported in publication PMC7265429, “Characterization of a new small-molecule inhibitor of HDAC6 in glioblastoma” (Cell Death & Disease, 2020).

System: GNS166 cells
Experiment: Microarray whole-transcriptome gene expression analysis
Format: cell-based, human
Conditions: 5 µM SAHA vs DMSO
Experimental: Whole-transcriptome analysis was performed from 300 ng of RNA using HuGene-2_0-st-v1 expression array (Affymetrix), which covers 48,226 transcripts. Raw data were first checked for quality purposes through the Affymetrix® Expression Console™ Software v1.4.1 and TAC software v4.0. Then, data were normalized using the Robust Multi-array Average (RMA) and analyzed by Limma tool. Probesets with FDR-corrected p-values smaller than 0.05 were selected. Functional enrichment on Gene Ontology (GO) biological processes was performed on a smaller subset of the differentially expressed genes (corrected p-value < 0.001) by means of Broad Institute GSEA. […] The data that support this study have been deposited in NCBI´s Gene Expression Omnibus and are accessible through GEO series accession number GSE143887.

SMILES: O=C(CCCCCCC(=O)Nc1ccccc1)NO [SAHA, Suberoylanilide hydroxamic acid]
- logFC C4orf32 (transcript TC0400008424.hg.1): 1.313
- logFC USP53 (transcript TC0400008557.hg.1): 1.38
- logFC SPRY1 (transcript TC0400008628.hg.1): 1.671
- logFC PCDH10 (transcript TC0400008725.hg.1): 3.614
- logFC LRAT (transcript TC0400009068.hg.1): 2.43
- logFC GUCY1B3 (transcript TC0400009088.hg.1): 2.131
- logFC GRIA2 (transcript TC0400009110.hg.1): 2.789
- logFC WDR17 (transcript TC0400009376.hg.1): 2.897
- logFC TLR10 (transcript TC0400010449.hg.1): 2.282
- logFC TEC (transcript TC0400010618.hg.1): 1.822
- logFC SPINK2 (transcript TC0400010780.hg.1): 1.664
- logFC PAQR3 (transcript TC0400011130.hg.1): 1.64
- logFC HPSE (transcript TC0400011203.hg.1): 1.993
- logFC ABCG2 (transcript TC0400011279.hg.1): 2.81
- logFC NDNF (transcript TC0400011732.hg.1): 1.962
- logFC CBR4 (transcript TC0400012375.hg.1): 2.0355
- logFC CCDC110 (transcript TC0400012640.hg.1): 2.964
- logFC STIM2 (transcript TC0400012781.hg.1): 2.698
- logFC STIM2 (transcript TC0400012782.hg.1): 1.4133
- logFC TMEM144 (transcript TC0400012854.hg.1): 1.56
- logFC MFAP3L (transcript TC0400012992.hg.1): 1.287
- logFC ROPN1L (transcript TC0500006744.hg.1): 1.559
- logFC CDH6 (transcript TC0500007044.hg.1): 1.462
- logFC HEXB (transcript TC0500007792.hg.1): 1.236
- logFC ADGRV1 (transcript TC0500008055.hg.1): 1.802
- logFC C5orf30 (transcript TC0500008233.hg.1): 1.583
- logFC ACTBL2 (transcript TC0500010822.hg.1): 3.506
- logFC SGTB (transcript TC0500010932.hg.1): 1.8638
- logFC MEF2C (transcript TC0500011418.hg.1): 3.2962
- logFC PCSK1 (transcript TC0500011513.hg.1): 2.7195
- logFC ST8SIA4 (transcript TC0500011579.hg.1): 2.463
- logFC NREP (transcript TC0500011705.hg.1): 1.704
- logFC SEMA6A (transcript TC0500011775.hg.1): 1.39
- logFC MARCH3 (transcript TC0500011935.hg.1): 1.4429
- logFC BASP1 (transcript TC0500013155.hg.1): 2.0101
- logFC BMP6 (transcript TC0600006873.hg.1): 2.494
- logFC CD83 (transcript TC0600007012.hg.1): 1.54
- logFC SLC25A27 (transcript TC0600008166.hg.1): 2.967
- logFC TMEM14A (transcript TC0600008262.hg.1): 1.194
- logFC OGFRL1 (transcript TC0600008486.hg.1): 1.1708
- logFC TPD52L1 (transcript TC0600009353.hg.1): 1.7761
- logFC KIAA0319 (transcript TC0600011065.hg.1): 1.327
- logFC GSTA4 (transcript TC0600012059.hg.1): 1.152
- logFC ELOVL4 (transcript TC0600012379.hg.1): 1.597
- logFC GPR63 (transcript TC0600012625.hg.1): 1.5628
- logFC CTGF (transcript TC0600013186.hg.1): 1.2152
- logFC SGK1 (transcript TC0600013231.hg.1): 2.01
- logFC CITED2 (transcript TC0600013361.hg.1): 1.453
- logFC MICA (transcript TC0600014101.hg.1): 1.308
- logFC TBC1D7 (transcript TC0600014241.hg.1): 1.745
- logFC GCLC (transcript TC0600014300.hg.1): 1.594
- logFC SCIN (transcript TC0700006735.hg.1): 1.966
- logFC TSPAN13 (transcript TC0700006783.hg.1): 2.267
- logFC RUNDC3B (transcript TC0700008261.hg.1): 2.108
- logFC PEG10 (transcript TC0700008367.hg.1): 1.87
- logFC SDHAF3 (transcript TC0700008430.hg.1): 2.085
- logFC CPED1 (transcript TC0700008928.hg.1): 1.813
- logFC FKBP14 (transcript TC0700010621.hg.1): 1.44
- logFC IGFBP3 (transcript TC0700010965.hg.1): 3.673
- logFC PCLO (transcript TC0700011655.hg.1): 1.736
- logFC TFPI2 (transcript TC0700011809.hg.1): 1.387
- logFC DOCK4 (transcript TC0700012276.hg.1): 2.262
- logFC KCNH2 (transcript TC0700013050.hg.1): 1.762
- logFC DOCK5 (transcript TC0800007057.hg.1): 2.096
- logFC CHCHD7 (transcript TC0800007697.hg.1): 1.373
- logFC GDAP1 (transcript TC0800007985.hg.1): 1.791
- logFC STMN2 (transcript TC0800008044.hg.1): 3.942
- logFC CA3 (transcript TC0800008124.hg.1): 3.677
- logFC CA2 (transcript TC0800008126.hg.1): 1.801
- logFC STC1 (transcript TC0800009891.hg.1): 3.859
- logFC TEX15 (transcript TC0800010045.hg.1): 3.073
- logFC ZMAT4 (transcript TC0800010224.hg.1): 2.513
- logFC ENPP2 (transcript TC0800011620.hg.1): 1.943
- logFC FBXO16 (transcript TC0800012396.hg.1): 1.919
- logFC SLC1A1 (transcript TC0900006522.hg.1): 1.427
- logFC CD274 (transcript TC0900006559.hg.1): 1.67
- logFC ZNF483 (transcript TC0900008425.hg.1): 1.1693
- logFC OLFM1 (transcript TC0900009145.hg.1): 2.218
- logFC MLLT3 (transcript TC0900009673.hg.1): 1.64
- logFC NMRK1 (transcript TC0900010445.hg.1): 1.539
- logFC DIRAS2 (transcript TC0900010737.hg.1): 1.619
- logFC CTSV (transcript TC0900010933.hg.1): 2.165
- logFC MEGF9 (transcript TC0900011379.hg.1): 1.37
- logFC PHYHIPL (transcript TC1000007714.hg.1): 2.12
- logFC SFR1 (transcript TC1000008798.hg.1): 1.8477
- logFC VIM-AS1 (transcript TC1000009920.hg.1): 1.211
- logFC DNAJC12 (transcript TC1000010827.hg.1): 2.378
- logFC CPEB3 (transcript TC1000011420.hg.1): 1.535
- logFC MPP7 (transcript TC1000012536.hg.1): 1.855
